Results: patent US20220323494A1, “Novel Control Switch” (GlaxoSmithKline Intellectual Property Development Limited, priority 2018, published 2022)

B1: Construct 14: conventional single chain CAR (SEQ ID NO: 52) that uses components from CONSTRUCT 10 (protein)
chain: MALPVTALLLPLALLLHAARPQVQLVQSGAEVKKPGSSVKVSCKGSGYTFTNYWMHWVRQAPGQGLEWIGATYRGHSDTYYNQKFKGRATLTADTSTSTAYMELSSLRSEDTAVYYCTRGAIYDGYDVLDNWGQGTLVTVSSGGGGSGGGGSGGGGSGGGGSDIQMTQSPSSLSASVGDRVTITCSASQDISNYLNWYQQKPGKAPKLLIYYTSNLHSGVPSRFSGSGSGTDFTLTISSLQPEDFATYYCQQYRKLPWTFGQGTKLEIKRFVPVFLPAKPTTTPAPRPPTPAPTIASQPLSLRPEACRPAAGGAVHTRGLDFACDIYIWAPLAGTCGVLLLSLVITLYCNHRNKRGRKKLLYIFKQPFMRPVQTTQEEDGCSCRFPEEEEGGCELRVKFSRSADAPAYQQGQNQLYNELNLGRREEYDVLDKRRGRDPEMGGKPRRKNPQEGLYNELQKDKMAEAYSEIGMKGERRRGKGHDGLYQGLSTATKDTYDALHMQALPPR
modifications: Construct 14 amino acid sequence

Assays:
[1] = test system: primary T-cells transduced with the HIV Integrase LEDGF/p75 OFF-CAR; experiment: Cytokine release by primary T-cells transduced with OFF-switch CAR (Example 5); type: cell-based, human; details: T-cells transduced with Construct 10 and 11; 10 μM, ARH-77-10B5, 24 hour
Description: Primary T-cell transduction and cytokine release: Peripheral blood mononuclear cells (PBMCs) from the fresh blood of two healthy human donors were isolated by density gradient centrifugation in Accuspin tubes (Sigma) containing 15 mL of Histopaque-1077 (Sigma) and following manufacturer's instructions. Cells were resuspended at 1×10^6 cells/mL in TEXMacs media (Miltenyi Biotec) containing 100 units/mL of IL-2 (Sigma) and TransAct beads (Miltenyi Biotec) and incubated for 48 hours at 37° C. with 5% CO2.
T-cells from the two donors were transduced with the lentiviral vectors encoding for CONSTRUCT 10 and CONSTRUCT 11. Transduction reactions were prepared to achieve an MOI of 5. T-cells were cultured in TEXMacs media (Miltentyi Biotec) with 100 units/mL of IL-2, fresh media was added every 3 days. ARH-77-10B5 cells were cultured as described in Example 1. BI224436 compound at a stock concentration of 100 mM in 100% DMSO was diluted in Jurkat media to achieve a stock concentration of 100 μM. Each T-cell population was incubated at a final concentration of 10 μM or 0 μM (media alone) BI224436 in Jurkat media for 1 hour at 37° C. with 5% CO2. […] Supernatants were analysed for cytokine levels using MSD V-plex Proinflammatory Panel 1 Human Kit (MSD, K15049D-2) and MSD Sector Imager (MSD).

[2] = test system: primary T-cells transduced with the HIV Integrase LEDGF/p75 OFF-switch CAR; experiment: Cytokine release with titration of BI224436, primary T-cells transduced with Construct 13 (Example 6); type: cell-based, human
Description: Lentiviral vector production and transduction of primary T-cells: Method for lentiviral production is described in Example 4 and method for primary T-cell transduction is described in Example 5.
Cytokine release: ARH-77-10B5 cells were cultured as described in Example 1. BI224436 compound at a stock concentration of 100 mM in 100% DMSO was diluted in Jurkat media to achieve a stock concentration of 100 μM. Each T-cell population was incubated at a final concentration of 10 μM, 3.3 μM, 1.1 μM, 0.37 μM, 0.12 μM, 0.04 μM, 0.013 μM, 0.004 μM, 0.001 μM or 0 μM (media alone) BI224436 in Jurkat media for 1 hour at 37° C. with 5% CO2. T-cells were then co-cultured (5×10^4 cells per well, 1:1 effector:target ratio) with ARH-77-10B5 cells (BCMA positive cells) for 24 hours in Jurkat media at 37° C. with 5% CO2. Cells were pelleted (1200 rpm, 5 min) and supernatants were collected. Supernatants were analysed for cytokine levels using MSD V-plex Proinflammatory Panel 1 Human Kit (MSD, K15049D-2) and MSD Sector Imager (MSD).

[3] = test system: NFAT promoter in Jurkat cells; experiment: NFAT-luciferase assay in Jurkat cells transfected with CAR constructs, co-cultured with ARH-77-10B5 cells; type: cell-based; details: 3 μM BI224436, 48 hours
Description: NFAT-luc2 Jurkat cells (Promega) were cultured in Jurkat media: RPMI medium 1640 (1×) without L-glutamine with phenol red (Gibco), 10% (v/v) Fetal Bovine Serum (FBS) Heat-Inactivated (Gibco), 1% (v/v) Minimum essential medium non-essential amino acids (MEM NEAA) (ThermoFisher), 1% (v/v) Sodium Pyruvate (Sigma), 1% (v/v) L-Glutamine (Gibco). ARH-77-10B5 cells were cultured in Jurkat media plus 1 mg/mL G418 (Thermo, 10131035). Cells were incubated at 37° C. with 5% CO2 for 48 hours. 20 μg of plasmid DNA from each construct was mixed with 8×10^6 NFAT-luc2 Jurkat cells and cells were transfected using the 4D-Nucleofector (Lonza) with cell Line SE Nucleofector kit (Lonza) by following manufacturer instructions with program CL-120. BI224436 compound (Chemexpress HY-18595) at a stock concentration of 100 mM in 100% DMSO (Sigma, D2650) was diluted in Jurkat media to achieve a stock concentration of 100 μM. Using the 100 μM BI224436 stock in Jurkat media, NFAT-luc2 Jurkat cells were incubated at a final compound concentration of 3 μM for 48 hours at 37° C. with 5% CO2. NFAT-luc2 Jurkat cells were then co-cultured (1×10^5 cells per well, 1:1 effector:target ratio) with ARH-77-10B5 cells (BCMA positive cells) for 6.5 hours. NFAT-luciferase luminescence was measured by using the Bio-Glo Luciferase Assay System (Promega G7940) (following manufacturer's instructions) and an EnSpire Multimode Plate Reader (Perkin Elmer).

K562 BCMA cells = experiment: Flow cytometry cytotoxicity assay, BCMA-positive target cells; type: cell-based; details: for Effect of BI224436 on cytotoxicity: 10 μM BI224436
Description: (§1) Isolation and transduction of CD4+ and CD8+ T-cells: Peripheral blood mononuclear cells (PBMCs) from the fresh blood of one healthy human donor was isolated by density gradient centrifugation in Accuspin tubes (Sigma) containing 15 mL of Histopaque-1077 (Sigma) and following manufacturer's instructions. CD4+ and CD8+ T cells were isolated using CD4 and CD8 microbeads (Miltenyi Biotec) and the AutoMACS Pro-separator (Miltenyi Biotec). Cells were resuspended at 1×10^6 cells/mL in TEXMacs media (Miltenyi Biotec) containing 100 units/mL of IL-7 (Sigma), 100 units/mL of IL-15 (Sigma) and TransAct beads (Miltenyi Biotec) and incubated for 48 hours at 37° C. with 5% CO2.
T-cells were transduced with lentiviral vectors encoding for CONSTRUCT 14 or CONSTRUCT 10. Transduced T-cells and untransduced (UT) T-cells were cultured in TEXMacs media (Miltenyi Biotec) with 100 units/mL of IL-7 (Sigma) and IL-15 (Sigma), and fresh media was added every 3 days. […] 1×10^5 of each T-cell population was stained with AlexaFluor 647 conjugated BCMA-Fc (generated in-house) to label theanti-BCMA scFv on the CARs. Measurements were made using a Cytoflex S (Beckman Coulter) and data analysed using FlowJo (FlowJo).
K562 BCMA cells (BCMA positive) were cultured in Jurkat media plus 0.8 mg/mL G418 (Gibco) and K562 cells (BCMA negative) were cultured in Jurkat media. Both cell lines were cultured at 37° C. with 5% CO2. BI224436 compound at a stock concentration of 100 mM in 100% DMSO (Sigma) was diluted in Jurkat media to achieve a stock concentration of 100 μM. K562 cells were stained with Cell Trace Far Red (0.5 μM, ThermoFisher) and K562 BCMA cells were stained with Cell Trace Violet (2.5 μM, ThermoFisher). […] 50 μL of each well was analysed on a Cytoflex S (Beckman Coulter) and data was analysed using FlowJo (FlowJo). The percentage of surviving K562 and K562 BCMA cells was calculated by dividing the number of K562 and K562 BCMA cells in each condition by the number of K562 and K562 BCMA cells found following co-culture with UT T-cells in 0 μM BI224436.

[4] = Plasma concentration of BI224436 in human subjects (clinical trial NCT01276990); type: in vivo; details: plasma 24 hours after 200 mg oral doses; IC50 is lower
ARH-77-10B5 cells = experiment: xCelligence cytotoxicity assay; type: cell-based; details: T-cells transduced with Construct 10; 10 μM BI224436
Description: Transduction of primary T-cells: Method described in Example 5
xCelligence cytotoxicity assay ARH-77-10B5 cells were as described in Example 1. BI224436 compound at a stock concentration of 100 mM in 100% DMSO was diluted in Jurkat media to achieve a stock concentration of 100 μM. xCelligence E-plates (ACEA, 06472460001) were coated with anti-CD40 tethering agent by following manufacturer's instructions for B-cell Killing (anti-CD40) Assay kit (ACEA, 8100004). Plates were inserted into the xCelligence station (ACEA) (37° C., 5% CO2) and allowed to equilibrate to 37° C. for 1 hour prior to taking background measurement. ARH-77-10B5 cells or Jurkat media were added to the plates (1×10^4 cells per well) and cultured for 20 h. Each T-cell population was incubated at a final concentration of 10 μM or 0 μM BI224436 in Jurkat media for 1 hour at 37° C. with 5% CO2. T-cells were added to the plates (1×10^4 cells per well, 1:1 effector:target ratio) and incubated in the xCelligence station for 24 hours. Data analysis was carried out using xCELLigence Immunotherapy Software (ACEA). The cell index for samples was normalized to the point of T-cell addition, then the normalized cell index for T-cells was divided by the normalized cell index of target cells alone to give the % viable cells at a given timepoint.

[5] = test system: K562 cells (BCMA negative); experiment: Flow cytometry cytotoxicity assay, BCMA-negative target cells; type: cell-based; details: transduced primary T-cells, K562 WT, 1:1 or 4:1 effector:target, 48 hours
Description: as §1
T-cells were transduced with lentiviral vectors encoding for CONSTRUCT 14 or CONSTRUCT 10. […] Measurements were made using a Cytoflex S (Beckman Coulter) and data analysed using FlowJo (FlowJo).
K562 BCMA cells (BCMA positive) were cultured in Jurkat media plus 0.8 mg/mL G418 (Gibco) and K562 cells (BCMA negative) were cultured in Jurkat media. […] 50 μL of each well was analysed on a Cytoflex S (Beckman Coulter) and data was analysed using FlowJo (FlowJo). The percentage of surviving K562 and K562 BCMA cells was calculated by dividing the number of K562 and K562 BCMA cells in each condition by the number of K562 and K562 BCMA cells found following co-culture with UT T-cells in 0 μM BI224436.

Row | IC50 ([2]; Homo sapiens, T-cell, primary T-cells transduced with Construct 13, stimulated with ARH-77-10B5, 24 hours, read-out: IC50 concentration for cytokine release (TNF-alpha, IL-2, IFN-gamma)) [nM] | IC50 concentration relative to plasma concentrations in human subjects [4] [fold] | Molecule | Effect of compound on cytokine release [1] | Effect of BI224436 concentration on level of TNF-alpha, IL-2 and IFN-gamma release ([2]; primary T-cells transduced with Construct 13, 0.001-10 μM titration) | Effect of BI224436 on NFAT activation ([3]; Jurkat cells transfected with Construct 6) | Effect of BI224436 on NFAT activation ([3]; Jurkat cells transfected with Construct 7) | Effect of BI224436 on NFAT activation ([3]; Jurkat cells transfected with Constructs 1 to 4) | Effect of BI224436 on cytotoxicity (K562 BCMA cells; T-cells transduced with OFF-switch CAR (Construct 10)) | Effect of BI224436 on cytotoxicity (K562 BCMA cells; T-cells transduced with conventional CAR (Construct 14)) | Effect of BI224436 on cytotoxic response (ARH-77-10B5 cells) | Killing of BCMA-negative cells [5] | Killing of BCMA-positive cells (K562 BCMA cells; transduced primary T-cells, K562 BCMA, 1:1 or 4:1 effector:target, 48 hours)
1 | 100 | 10 | Cc1nc2ccccc2c(-c2ccc3c4c(ccnc24)CCO3)c1[C@H](OC(C)(C)C)C(=O)O [BI224436, 3-Quinolineacetic acid, 4-(2,3-dihydropyrano[4,3,2-de]quinolin-7-yl)-α-(1,1-dimethylethoxy)-2-methyl-,(αS,4R)-] | attenuated | tunes the level | preserved | preserved | does not reduce the level of activation | effectively attenuates | does not affect | reduced |  | 
2 |  |  | B1 |  |  |  |  |  |  |  |  | not BCMA-negative cells | kill BCMA-positive cells
